In patent publication US10604512B2, “3-(1H-indol-2-yl)-1H-indazoles and therapeutic uses thereof” (Samumed, LLC, priority 2015, dated 2020):

Test system: primary human mesenchymal stem cells (hMSCs)
Test: Induction of chondrogenesis in primary human mesenchymal stem cells (nodule imaging, Rhodamine B / Nile Red)
Type: cell-based
Details: for EC50: concentration required to induce 50% levels of chondrogenesis vs TGF-β3 positive control, read-out: Conc (nM) of 50% TGF-β3 activity; for Emax: maximum chondrogenesis activity relative to TGF-β3 (10 ng/mL) positive control, read-out: Max. Activity as % TGF-β3 activity
Method: Representative compounds were screened using primary human mesenchymal stem cells (hMSCs) to determine their ability to induce chondrogenesis (process by which cartilage is developed).
Primary human mesenchymal stem cells (hMSCs) were purchased from Lonza (Walkersville, Md.) and expanded in Mesenchymal Stem Cell Growth Media (Lonza). Cells between passage 3 and 6 were used for the experiments.
Each compound was dissolved in DMSO as a 10 mM stock and used to prepare compound source plates. For the 96 well assay, serial dilution (1:3, 6-point dose-response curves from 2700 nM to 10 nM) and compound transfer was performed using the ECHO 550 (Labcyte, Sunnyvale, Calif.) into 96-well clear bottom assay plates (Greiner Bio-One) with appropriate DMSO backfill for a final DMSO concentration of 0.03%. hMSCs were plated at 20,000 cells/well in 250 μL/well Incomplete Chondrogenic Induction Medium (Lonza; DMEM, dexamethasone, ascorbate, insulin-transferrin-selenium [ITS supplement], gentamycin-amphotericin [GA-1000], sodium pyruvate, proline and L-glutamine). TGF-β3 (10 ng/mL) was used as a positive control for differentiation while negative control wells were treated with 75 nL DMSO for normalization and calculating EC50 values. For the 384 well assay, serial dilution (1:3, 8-point dose-response curves from 5000 nM to 2.2 nM) and compound transfer was performed using the ECHO 550 (Labcyte, Sunnyvale, Calif.) into 384-well clear bottom assay plates (Greiner Bio-One) with appropriate DMSO backfill for a final DMSO concentration of 0.03%. hMSCs were plated at 8,000 cells/well in 80 μL/well Incomplete Chondrogenic Induction Medium (Lonza; DMEM, dexamethasone, ascorbate, insulin-transferrin-selenium [ITS supplement], gentamycin-amphotericin [GA-1000], sodium pyruvate, proline and L-glutamine). TGF-β3 (10 ng/mL) was used as a positive control for differentiation while negative control wells were treated with 25 nL DMSO for normalization and calculating EC50 values. Cells were incubated at 37° C. and 5% CO2 for 6 days. To image chondrogenic nodules, the cells were fixed using 4% formaldehyde (Electron Microscopy Sciences), and stained with 2 μg/mL Rhodamine B (Sigma-Aldrich) and 20 μM Nile Red (Sigma-Aldrich) [Johnson K., et. al, A Stem CellBased Approach to Cartilage Repair, Science, (2012), 336(6082), 717-721]. The nodules imaged (25 images per well for 96 well plates and 9 images per well for 384 well plates at 10× magnification) by excitation at 531 nm and emission at 625 nm and quantified using the CellInsight CX5 (Thermo Scientific). Area of nodules in each well was normalized to the average of 3 DMSO treated wells on the same plate using Excel (Microsoft Inc.). The normalized averages (fold change over DMSO) of 2 or 3 replicate wells for each compound concentration were calculated. Due to solubility limitations of some of the compounds, curve fitting was incomplete leading to inaccurate EC50 determinations.
Using TGF-β3 as a positive control, the concentration of representative compounds required to induce 50% levels of chondrogenesis is reported. In addition, the maximum activity of each compound and the respective dose that each compound reached maximum chondrogenesis activity is reported.

Fc1ccc(-c2cccc3[nH]c(-c4n[nH]c5ccc(-c6cncc(CN7CCCC7)c6)cc45)cc23)cc1 [Compound 42, 3-(4-(4-Fluorophenyl)-1H-indol-2-yl)-5-(5-(pyrrolidin-1-ylmethyl)pyridin-3-yl)-1H-indazole]
EC50: 30 nM | Emax: 197%

Nc1cncc(-c2ccc3[nH]nc(-c4cc5c(-c6ccccc6F)cccc5[nH]4)c3c2)c1 [Compound 59, 5-(3-(4-(2-Fluorophenyl)-1H-indol-2-yl)-1H-indazol-5-yl)pyridin-3-amine]
EC50: 10 nM | Emax: 197%

CCC(=O)Nc1cncc(-c2ccc3[nH]nc(-c4cc5c(-c6cccnc6)cccc5[nH]4)c3c2)c1 [Compound 85, N-(5-(3-(4-(Pyridin-3-yl)-1H-indol-2-yl)-1H-indazol-5-yl)pyridin-3-yl) propionamide]
EC50: 10 nM | Emax: 197%

c1cncc(-c2ccc3[nH]nc(-c4cc5c(-c6cccnc6)cccc5[nH]4)c3c2)c1 [Compound 88, 5-(Pyridin-3-yl)-3-(4-(pyridin-3-yl)-1H-indol-2-yl)-1H-indazole]
EC50: 10 nM | Emax: 183%

CC(C)C(=O)Nc1cncc(-c2ccc3[nH]nc(-c4cc5c(-c6cccnc6)cccc5[nH]4)c3c2)c1 [Compound 93, N-(5-(3-(4-(Pyridin-3-yl)-1H-indol-2-yl)-1H-indazol-5-yl)pyridin-3-yl) isobutyramide]
EC50: 30 nM | Emax: 199%

c1cncc(-c2cccc3[nH]c(-c4n[nH]c5ccc(-c6cncc(CN7CCCCC7)c6)cc45)cc23)c1 [Compound 99, 5-(5-(Piperidin-1-ylmethyl)pyridin-3-yl)-3-(4-(pyridin-3-yl)-1H-indol-2-yl)-1H-indazole]
EC50: 10 nM | Emax: 212%

c1cncc(-c2cccc3[nH]c(-c4n[nH]c5ccc(-c6cncnc6)cc45)cc23)c1 [Compound 111, 3-(4-(Pyridin-3-yl)-1H-indol-2-yl)-5-(pyrimidin-5-yl)-1H-indazole]
EC50: 10 nM | Emax: 202%

Cc1ccncc1-c1ccc2[nH]nc(-c3cc4c(-c5ccncc5)cccc4[nH]3)c2c1 [Compound 117, 5-(4-Methylpyridin-3-yl)-3-(4-(pyridin-4-yl)-1H-indol-2-yl)-1H-indazole]
EC50: 10 nM | Emax: 190%

CCNCc1cncc(-c2ccc3[nH]nc(-c4cc5c(-c6ccncc6)cccc5[nH]4)c3c2)c1 [Compound 118, N-((5-(3-(4-(Pyridin-4-yl)-1H-indol-2-yl)-1H-indazol-5-yl)pyridin-3-yl)methyl)ethanamine]
EC50: 30 nM | Emax: 199%

CN(C)Cc1cncc(-c2ccc3[nH]nc(-c4cc5c(-c6ccncc6)cccc5[nH]4)c3c2)c1 [Compound 125, N,N-dimethyl-1-(5-(3-(4-(Pyridin-4-yl)-1H-indol-2-yl)-1H-indazol-5-yl)pyridin-3-yl)methanamine]
EC50: 30 nM | Emax: 191%

O=C(Nc1cncc(-c2ccc3[nH]nc(-c4cc5c(-c6ccncc6)cccc5[nH]4)c3c2)c1)C1CC1 [Compound 132, N-(5-(3-(4-(Pyridin-4-yl)-1H-indol-2-yl)-1H-indazol-5-yl)pyridin-3-yl) cyclopropanecarboxamide]
EC50: 10 nM | Emax: 219%

Nc1cncc(-c2ccc3[nH]nc(-c4cc5c(-c6ccccn6)cccc5[nH]4)c3c2)c1 [Compound 143, 5-(3-(4-(Pyridin-2-yl)-1H-indol-2-yl)-1H-indazol-5-yl)pyridin-3-amine]
EC50: 10 nM | Emax: 224%

c1ccc(-c2cccc3[nH]c(-c4n[nH]c5ccc(-c6cncc(CN7CCCC7)c6)cc45)cc23)nc1 [Compound 154, 3-(4-(Pyridin-2-yl)-1H-indol-2-yl)-5-(5-(pyrrolidin-1-ylmethyl)pyridin-3-yl)-1H-indazole]
EC50: 10 nM | Emax: 180%

c1ccc(-c2cccc3[nH]c(-c4n[nH]c5ccc(-c6cncnc6)cc45)cc23)nc1 [Compound 167, 3-(4-(Pyridin-2-yl)-1H-indol-2-yl)-5-(pyrimidin-5-yl)-1H-indazole]
EC50: 10 nM | Emax: 203%

CCC(=O)Nc1cncc(-c2ccc3[nH]nc(-c4cc5c(N6CCCCC6)cccc5[nH]4)c3c2)c1 [Compound 169, N-(5-(3-(4-(Piperidin-1-yl)-1H-indol-2-yl)-1H-indazol-5-yl)pyridin-3-yl) propionamide]
EC50: 30 nM | Emax: 171%

CN(C)Cc1cncc(-c2ccc3[nH]nc(-c4cc5c(N6CCCCC6)cccc5[nH]4)c3c2)c1 [Compound 181, N,N-Dimethyl-1-(5-(3-(4-(piperidin-1-yl)-1H-indol-2-yl)-1H-indazol-5-yl)pyridin-3-yl)methanamine]
EC50: 10 nM | Emax: 205%

O=C(Nc1cncc(-c2ccc3[nH]nc(-c4cc5c(N6CCCCC6)cccc5[nH]4)c3c2)c1)C1CC1 [Compound 188, N-(5-(3-(4-(Piperidin-1-yl)-1H-indol-2-yl)-1H-indazol-5-yl)pyridin-3-yl) cyclopropanecarboxamide]
EC50: 10 nM | Emax: 183%

FC1(F)CCN(Cc2cncc(-c3ccc4[nH]nc(-c5cc6c(N7CCCCC7)cccc6[nH]5)c4c3)c2)C1 [Compound 194, 5-(5-((3,3-Difluoropyrrolidin-1-yl)methyl)pyridin-3-yl)-3-(4-(piperidin-1-yl)-1H-indol-2-yl)-1H-indazole]
EC50: 30 nM | Emax: 160%

CN1CCN(c2cccc3[nH]c(-c4n[nH]c5ccc(-c6cncc(N)c6)cc45)cc23)CC1 [Compound 227, 5-(3-(4-(4-Methylpiperazin-1-yl)-1H-indol-2-yl)-1H-indazol-5-yl)pyridin-3-amine]
EC50: 100 nM | Emax: 166%

CC(C)C(=O)Nc1cncc(-c2ccc3[nH]nc(-c4cc5c(N6CCN(C)CC6)cccc5[nH]4)c3c2)c1 [Compound 233, N-(5-(3-(4-(4-Methylpiperazin-1-yl)-1H-indol-2-yl)-1H-indazol-5-yl)pyridin-3-yl)isobutyramide]
EC50: 100 nM | Emax: 196%

CN1CCN(c2cccc3[nH]c(-c4n[nH]c5ccc(-c6cncc(CN7CCCCC7)c6)cc45)cc23)CC1 [Compound 239, 3-(4-(4-Methylpiperazin-1-yl)-1H-indol-2-yl)-5-(5-(piperidin-1-ylmethyl)pyridin-3-yl)-1H-indazole]
EC50: 100 nM | Emax: 198%

CN1CCN(c2cccc3[nH]c(-c4n[nH]c5ccc(-c6cncc(NC(=O)C7CCCC7)c6)cc45)cc23)CC1 [Compound 246, N-(5-(3-(4-(4-Methylpiperazin-1-yl)-1H-indol-2-yl)-1H-indazol-5-yl)pyridin-3-yl)cyclopentanecarboxamide]
EC50: 100 nM | Emax: 185%

CN1CCN(c2cccc3[nH]c(-c4n[nH]c5ccc(-c6cncnc6)cc45)cc23)CC1 [Compound 251, 3-(4-(4-Methylpiperazin-1-yl)-1H-indol-2-yl)-5-(pyrimidin-5-yl)-1H-indazole]
EC50: 100 nM | Emax: 165%

c1cncc(-c2ccc3[nH]nc(-c4cc5ccccc5[nH]4)c3c2)c1 [Compound 256, 3-(1H-Indol-2-yl)-5-(pyridin-3-yl)-1H-indazole]
EC50: 10 nM | Emax: 162%

CCNCc1cncc(-c2ccc3[nH]nc(-c4cc5ccccc5[nH]4)c3c2)c1 [Compound 258, N-((5-(3-(1H-Indol-2-yl)-1H-indazol-5-yl)pyridin-3-yl)methyl)ethanamine]
EC50: 10 nM | Emax: 532%
